Patent publication US9926369B2, “Methods for treating hepatocellular cancer by administering an anti-Ang-2 antibody” (Regeneron Pharmaceuticals, Inc., priority 2009, dated 2018)

Experiments:
[1] = system: COLO 205 (Human Colorectal Adenocarcinoma Cell Line) tumors; assay: COLO 205 mouse tumor model; type: in vivo, mice
Experimental: Briefly, 2×10^6COLO 205 cells in 100 μl of serum-free medium were injected subcutaneously into the flank of 6-8 week old male NCr nude mice (Taconic, Hudson, N.Y.). After tumor volumes reached an average of about 150 mm^3, mice were randomized into groups for treatment with antibody or Fc protein. Mice in each treatment group were administered an anti-Ang-2 antibody or Fc protein at a concentration of 4 mg/kg via intraperitoneal injection twice per week for approximately two weeks. Tumor volumes were measured twice per week over the course of the experiment and tumor weights were measured upon excision of tumors at the conclusion of the experiment. Averages (mean+/−standard deviation) of tumor weight and growth were calculated for each treatment group. “Avg. Tumor Growth” represents the average growth from the time of treatment initiation (when tumors were approximately 150 mm^3). Percent decrease of tumor weight and growth are calculated from comparison to Fc protein measurements.
A similar experiment was carried out to assess the effect of H1H685P, in particular, on COLO 205 tumor growth. Briefly, 2×10^6 COLO 205 cells in 100 μl of serum-free medium were implanted subcutaneously into the right hind flank of 9-11 week-old male SCID CB17 mice. When the tumors reached ˜125 mm^3, mice were randomized into 5 groups (n=7-8 mice/group) and treated twice per week with Fc protein (15 mg/kg), H1H685P (5 or 25 mg/kg) or Control II (5 or 25 mg/kg) for a period of 19 days. Tumor volumes were measured twice per week over the course of the experiment and tumor weights were measured upon excision of tumors at the end of the experiment. Averages of tumor weight and growth from the beginning of treatment were calculated for each group. Percent decrease of tumor weight and growth are calculated from comparison to the Fc control group.
To determine the effect of combining an anti-Ang-2 antibody with a VEGF inhibitor on the growth of COLO 205 xenografts, 2×10^6 cells were implanted subcutaneously into the right hind flank of 6-8 week-old female SCID mice. When the tumors reached an average volume of ˜350 mm^3, mice were randomized into 4 groups (n=6 mice/group) and treated with: human Fc protein (7.5 mg/kg), H1H685P (5 mg/kg), VEGF Trap (see U.S. Pat. No. 7,087,411) (2.5 mg/kg) or the combination of H1H685P+VEGF Trap. Mice were given a total of 3 doses over 10 days of treatment. Tumor volumes were measured twice per week over the course of the experiment. Averages of tumor growth from the start of treatment (mean+/−standard deviation) were calculated for each treatment group. Percent decrease of tumor growth was calculated from comparison to the Fc control group.
To test the effect of H1H685P in combination with a chemotherapeutic agent on tumor growth, 2.5×10^6 COLO 205 tumor cells were implanted subcutaneously into the right hind flank of 8-9 week-old male SCID mice. When the tumors reached an average volume of ˜150 mm^3 (day 17 after implantation), mice were randomized into 4 groups (n=5 mice/group) and treated as follows: the first group was treated sc with 15 mg/kg hFc and intraperitoneally (ip) with 5-FU vehicle; the second group was treated sc with 15 mg/kg of H1H685P; the third group was treated ip with 75 mg/kg of 5-FU; the fourth group was treated with the combination of 15 mg/kg H1H685P sc plus 75 mg/kg 5-FU ip. Mice received a total of three treatments, administered every 3-4 days. Tumor volumes were measured twice per week over the course of the experiment. Average (mean+/−standard deviation) tumor growth from the beginning of treatment until day 38 was calculated for each group. Percent decrease of tumor growth was calculated from comparison to the control group.

MMT tumors = assay: MMT tumor growth in SCID mice; type: in vivo; details: H1H685P 12.5 mg/kg, VEGF Trap 5 mg/kg
Experimental: To provide additional evidence of combination efficacy, the effect of the H1H685P+VEGF Trap combination on the growth of MMT tumors was assessed. 0.5×10^6 MMT cells were implanted subcutaneously into the right hind flank of 6-8 week-old female SCID mice. […] The Fc and H1H685P groups were given 3 doses over 9 days. The VEGF Trap and combination groups were given 4 doses over 12 days. Tumor volumes were measured twice per week over the course of the experiment and tumor weights were measured upon excision of tumors at the end of the experiment (due to their large size, tumors from the Fc and H1H685P groups were collected 3 days before tumors from the VEGF Trap and combination groups). Averages (mean+/−standard deviation) of tumor growth from the beginning of treatment and of tumor weight were calculated for each group. Percent decrease of tumor weight and growth are calculated from comparison to the Fc control group.

[2] = system: COLO 205 tumor vessel perfusion; assay: Tumor perfusion by contrast-enhanced micro-ultrasound, COLO 205 tumors; type: in vivo, mice; details: treated for 24 hrs
Experimental: To determine whether the combination of H1H685P+VEGF Trap has a greater effect on tumor vessel function than the single agents, a micro-ultrasound (VisualSonics' Vevo 770 imaging system) was used to assess changes in tumor perfusion. COLO 205 tumors were grown to ˜125 mm^3 and mice were then treated for 24 hrs with H1H685P, VEGF Trap or the combination of both agents. Following treatment, tumor vessel perfusion was determined based on contrast-enhanced micro-ultrasound 2D image acquisition and analysis of a “wash-in” curve, which represents the amount of contrast agent entering the tumor. Average (mean+/−standard deviation) tumor perfusion was calculated for each group. Percent decrease was calculated from comparison to the Fc control group.

[3] = COLO 205, male SCID mice, H1H685P 15 mg/kg sc, 5-FU 75 mg/kg ip, three treatments, until day 38
[4] = COLO 205, female SCID mice, H1H685P 5 mg/kg, VEGF Trap 2.5 mg/kg, 3 doses over 10 days

O=c1[nH]cc(F)c(=O)[nH]1 [Antibody 5-FU, 5-FU, reference compound]
% Decrease in Tumor Growth [1, 3]: 45%
Avg Tumor Growth [1, 3]: 313 ± 60 mm^3

VEGF Trap: VEGF-inhibiting fusion protein: VEGF receptor extracellular domains fused to the Fc portion of human IgG1 [reference compound]
% Decrease in Tumor Growth (MMT tumors): 60%
% Decrease in Tumor Weight (MMT tumors): 44%
Avg Tumor Growth (MMT tumors): 536 ± 179 mm^3
Avg Tumor Weight (MMT tumors): 0.889 ± 0.141 g
% Decrease in Tumor Growth [1, 4]: 117%
Avg Tumor Growth [1, 4]: −62 ± 44 mm^3
Tumor regression (in words) ([1]; COLO 205, female SCID mice, end vs beginning of treatment): tumor regression was observed
Relative Tumor Perfusion ([2]; mean ± SD): 6.99 ± 1.36
% Decrease in Tumor Perfusion ([2]; vs Fc control): 14%
